Measurements reported in Sander's compilation of Henry's law constants (doi:10.1007/bf02268351).

Assay: Henry solubility constant Hcp at 298.15 K (mol/(m3 Pa))
Settings: reference: Kolb et al. (1992)

Going from `CC(Cl)(Cl)Cl` [1,1,1-trichloroethane] to `ClC(Cl)=C(Cl)Cl` [tetrachloroethene], the “Henry solubility constant Hcp” value rises from 0.00079 to 0.00081.

Going from `Cc1ccccc1C` [1,2-dimethylbenzene] to `Cc1ccccc1` [methylbenzene], the “Henry solubility constant Hcp” value rises from 0.0014 to 0.0016.

First: CC(C)O [2-propanol]
Second: CC(=O)CC(C)C [4-methyl-2-pentanone]
The “Henry solubility constant Hcp” value of the first is higher: 0.79 for the first, 0.043 for the second.

Going from `CCCCOC(C)=O` [butyl ethanoate] to `CCOC(C)=O` [ethyl ethanoate], the “Henry solubility constant Hcp” value rises from 0.023 to 0.044.

Compared with `C1CCCCC1` [cyclohexane], `CCCCCC` [hexane] is higher in “Henry solubility constant Hcp” value: 5.4e-05 for the first, 0.00024 for the second.
